# According to PMC9697131, “Agomelatine, Ketamine and Vortioxetine Attenuate Energy Cell Metabolism—In Vitro Study” (International Journal of Molecular Sciences, 2022):
# Where two headings read alike, the source gives them in different places.
# What was measured:
# MAO-A = molecular target: T1, MAO-A (Sus scrofa, UniProt Q6Q2J0); assay: MAO-A activity, radiolabeled [3H]serotonin substrate; type: biochemical, pig; details: for MAO-A Inhibition (type): 0.1–300 µM; for MAO-A Hillslope / MAO-A Residual Activity: mean
# T1 construct: from tissue; host or cells: pig brain mitochondria
# T1 sequence (Q6Q2J0 1-527): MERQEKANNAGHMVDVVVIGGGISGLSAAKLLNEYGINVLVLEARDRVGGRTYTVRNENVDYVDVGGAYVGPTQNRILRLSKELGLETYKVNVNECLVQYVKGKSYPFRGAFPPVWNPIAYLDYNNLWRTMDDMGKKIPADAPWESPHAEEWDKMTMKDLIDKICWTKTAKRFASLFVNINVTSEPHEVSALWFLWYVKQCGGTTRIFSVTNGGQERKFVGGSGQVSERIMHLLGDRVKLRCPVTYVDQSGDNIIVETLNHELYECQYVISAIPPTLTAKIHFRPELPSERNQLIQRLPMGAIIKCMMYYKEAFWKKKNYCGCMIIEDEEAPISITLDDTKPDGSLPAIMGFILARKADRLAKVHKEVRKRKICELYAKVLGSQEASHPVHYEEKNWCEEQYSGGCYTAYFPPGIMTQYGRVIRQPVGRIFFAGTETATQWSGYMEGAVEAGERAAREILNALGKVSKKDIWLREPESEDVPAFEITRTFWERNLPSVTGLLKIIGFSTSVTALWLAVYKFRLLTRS
# Experimental: (§1) Pig brains were obtained from a slaughterhouse. Mitochondrial fraction isolation and purification from brain cortex were performed as previously described. Briefly, grey matter from pig brains was homogenized and crude mitochondrial fraction was isolated and then centrifuged on the sucrose gradient to obtain purified mitochondrial fraction. The freshly purified mitochondria were kept on ice until the assays were performed and were used for measurements of the mitochondrial oxygen consumption rate, measurements of ATP and ROS formation. Frozen mitochondria (stored at −70 °C) were used for the following enzyme activity measurements: ETC complexes, citrate synthase (CS) and malate dehydrogenase (MDH) activity.
# Mitochondria in KH buffer at final concentration of 800 µg/mL were preincubated with the tested drugs in a final concentration range of 0.1–300 µM for 60 min at 37 °C. For each measurement, there was a corresponding drug-free control (DMSO). Radiolabeled substrates ([^3H]serotonin for MAO-A and [^14C]PEA for MAO-B) were added to initiate the reaction. The reaction was carried out at 37 °C for 20 min for MAO-A and for 1 min for MAO-B, and the reaction was stopped by hydrochloric acid. The radioactivity of the organic phases of the extracts were measured by liquid scintillation counting (LS 6000IC, Beckman Instruments, Inc., Fullerton, CA, USA).
# The inhibition of respiration rate and MAO activity were analyzed by A four-parameter logistic regression with Prism software (GraphPad Software, San Diego, CA, USA) was used to analyze the respiratory rate inhibition and activity of MAO. […] The IC50 represents the drug concentration required to inhibit the difference between the baseline and the residual value of the mitochondrial oxygen flux or MAO activity by 50%.
# [1] = test system: complex II+III-linked ATP kinetics, pig brain mitochondria; assay: Complex II+III-linked ATP kinetics, bioluminescence; type: biochemical; details: 10 μM drug; mean ± SD
# Experimental: as §1
# The following protocol has been modified and optimized. An ATP Bioluminescence Assay Kit CLS II was used to measure ATP content and kinetics. The luminescence was measured using FluoroMax-3 (Jobin Yvon, Edison, NJ, USA) at 562 nm. Standard curve for ATP determination was prepared from ATP standard in the range from 0 to 600 nM. […]
# For ATP kinetics determination MiR05 buffer, mitochondria and drugs were incubated on ice for 20 min and another 10 min at room temperature. Background luminescence was measured. Consequently, the same substrate mixture as mentioned above, and 230 µL of luciferase reagent were added and ATP kinetics was determined by measuring the luminescence for 4 min. […]
# [2] = mean ± SEM, 4 measurements, read-out: MAO-A IC50
SMILES,MAO-A Inhibition (type) (MAO-A),IC50 (MAO-A; [2]) [µM],MAO-A Hillslope (MAO-A; 4 measurements),MAO-A Residual Activity (MAO-A; 4 measurements) [rel.u.],complex II+III-linked ATP kinetics (relative to control = 100%) [1] [%],IC50 (MAO-A) [µM]
COc1ccc2cccc(CCNC(C)=O)c2c1 [agomelatine],partial,8.2,3.40,0.190,,
CNC1(c2ccccc2Cl)CCCCC1=O (stereo not shown) [ketamine],partial,,1.50,0.259,84.9 ± 5.9,10.4
Cc1ccc(Sc2ccccc2N2CCNCC2)c(C)c1 [vortioxetine],partial,7.33,1.76,0.109,,
